The results in this text go back to patent US20260041094A1, “Compositions Comprising an Antimicrobial Boosting Agent” (Symrise AG, priority 2022, published 2026).

The structures appear in SMILES notation.

Holding throughout (test): Minimum Inhibitory Concentration (MIC) test, growth inhibition in 96 well plates via optical density
Type in all cases: cell-based

The test system of one experiment is Aspergillus brasiliensis. The following applies: lowest concentration with complete growth inhibition, A. brasiliensis; for MIC: Aspergillus brasiliensis, read-out: MIC in ppm Aspergillus brasiliensis. As for the experimental part: (§1) The Minimum Inhibitory Concentration (MIC) test is a test on growth inhibition. The estimation of MICs is executed in 96 well plates. Through the comparison of bacterial growth with positive and negative controls via optical density (OD), different concentrations of given test substances are evaluated.
(§2) Bacteria were cultivated under adjusted conditions based on information of the German Collection of Microorganisms and Cell Cultures (DSMZ) and stored in 10% or 50% glycerol prior to use. Afterwards, the following method was applied: Growth medium (according to microorganism) was added to each well of the microplate. Then, test-substances solved in DMSO, and strain specific benchmarks were added. Additionally, […] (water controls only with medium) and solvent controls (DMSO controls only with medium) were performed. Finally, the microorganisms were added in a concentration of 1 to 6×10^6 CFU/ml (CFU=colony forming units). The incubation of the microplates was carried out at appropriate conditions.
(§3) According to the resulting growth, substance concentrations are labelled either as inhibiting or not and MIC is defined as the lowest concentration where a complete growth inhibition is visible. Experiments at concentration limits (highest concentration labelled as growth and lowest concentration labelled as inhibiting) are performed at least twice.
(§4) Tested concentrations were adjusted to performance of test substance, but in general: 5,000 ppm steps between 50,000 ppm and 10,000 ppm, and 2500 ppm steps below 10,000 ppm, finishing with 1000 ppm. To enhance resolution of the approach, additional intermediate steps were included in individual cases. […] For ethylhexylglycerin and 1,2-pentanediol, pure substance without DMSO was tested.
(§5) To verify that the tested combinations act synergistically against microorganisms, corresponding experiments were conducted with Staphylococcus aureus, Candida albicans, Aspergillus brasiliensis, Pseudomonas aeruginosa and Escherichia coli. The synergistic activities of MAA-1 and different antimicrobial compounds in a mixture of 50% and 50% were determined by measuring the MIC of the mixture.
(§6) In order to calculate the synergy index with MIC values, the Kull equation was used as follows:
(§7) [formula] • wherein • SI is the Synergy Index according to Kull • MICA is the MIC value for Substance A • MICB is the MIC value for Substance B • MICmixture is the MIC value for the mixture of substances A and B • PA is the proportion of the substance A in the mixture • PB is the proportion of the substance B in the mixture
(§8) A Synergy Index (SI) with a value lower than 1 indicates a synergistic effect of the mixture that has been tested. Values higher than 1 indicate the absence of a synergistic effect.
(§9) For mixtures for which no MIC value has been determined, the calculation of an SI is not applicable (marked as n.a. in the following tables).

The test system of a further experiment is Candida albicans. To be noted: lowest concentration with complete growth inhibition, C. albicans; for MIC: Candida albicans, read-out: MIC in ppm Candida albicans. As for the experimental part: as §1, §2, §3, §4, §5, §6, §7, §8, §9
The subject of a further experiment is Escherichia coli. To be noted: lowest concentration with complete growth inhibition, E. coli; for MIC: Escherichia coli, read-out: MIC in ppm Escherichia coli. As for the experimental part:
as §1, §2, §3, §4, §5, §6, §7, §8, §9

The subject of another experiment is Pseudomonas aeruginosa. To be noted: lowest concentration with complete growth inhibition, P. aeruginosa; for MIC: Pseudomonas aeruginosa, read-out: MIC in ppm Pseudomonas aeruginosa. Here is the method: as §1, §2, §3, §4, §5, §6, §7, §8, §9
Another experiment relates to Staphylococcus aureus. To be noted: lowest concentration with complete growth inhibition, S. aureus; for MIC: Staphylococcus aureus, read-out: MIC in ppm Staphylococcus aureus. As for the experimental part:
as §1, §2, §3, §4, §5, §6, §7, §8, §9

Consider `CCCC(O)CO` (stereo not drawn) [1,2-Pentanediol], for which the MIC was 17.5 mg/mL in the experiment with Aspergillus brasiliensis; 12.5 mg/mL in the experiment on Candida albicans; 15 mg/mL in the experiment with Escherichia coli; 30 mg/mL in the experiment with Pseudomonas aeruginosa; 35 mg/mL in the experiment on Staphylococcus aureus.
For the compound `COc1ccc(/N=C2\CC(C)(C)CC3=C2SCC(C(=O)O)N3)cc1OC` (stereo not drawn) [MAA-13, 8-((3,4-dimethoyxphenyl)imino)-6,6-dimethyl-3,4,5,6,7,8-hexahydro-2-H-benzol[b][1,4]thiazine-3-carboxylic acid], the MIC with Aspergillus brasiliensis is greater than 30 mg/mL; in the experiment on Candida albicans, 25 mg/mL; in the experiment on Escherichia coli, greater than 25 mg/mL; in the experiment with Pseudomonas aeruginosa, greater than 30 mg/mL; in the experiment on Staphylococcus aureus it was 25 mg/mL.
As to `CC(=O)c1ccc(O)cc1` [4-Hydroxy-acetophenone, 4-Hydroxyacetophenone], the “MIC in ppm Aspergillus brasiliensis” value in the experiment with Aspergillus brasiliensis was 2,500 ppm. In addition, the “MIC in ppm Candida albicans” value in the experiment on Candida albicans was 6,000 ppm. In the experiment on Escherichia coli, the “MIC in ppm Escherichia coli” value is on record as 2,500 ppm. For the same compound, the “MIC in ppm Pseudomonas aeruginosa” value in the experiment on Pseudomonas aeruginosa is 4,000 ppm. The “MIC in ppm Staphylococcus aureus” value with Staphylococcus aureus is reported as 5,000 ppm.
For the compound `CC1(C)CC(NCC(=O)O)=C/C(=N/c2ccccc2)C1` [MAA-20, 2-[(5,5-dimethyl-3-phenylimino-cyclohexen-1-yl)amino]acetic acid], the MIC with Aspergillus brasiliensis was greater than 30 mg/mL; in the experiment with Candida albicans, greater than 25 mg/mL; in the experiment with Escherichia coli, 15 mg/mL; in the experiment with Pseudomonas aeruginosa, greater than 30 mg/mL; in the experiment on Staphylococcus aureus it was greater than 25 mg/mL.
In the case of `CCOC(=O)CNC1=C/C(=N/c2ccccc2)CC(C)(C)C1` [MAA-1], the MIC in the experiment with Aspergillus brasiliensis was 20 mg/mL; with Candida albicans it was 7.5 mg/mL; in the experiment with Escherichia coli it was 2.5 mg/mL; with Pseudomonas aeruginosa, greater than 25 mg/mL; in the experiment with Staphylococcus aureus it was 2.5 mg/mL.
Regarding `CCCCC(CC)COCC(O)CO` (stereo not drawn) [Ethylhexylglycerin], the “MIC in ppm Aspergillus brasiliensis” value in the experiment with Aspergillus brasiliensis is listed as 1,000 ppm. For the same compound, the “MIC in ppm Candida albicans” value in the experiment on Candida albicans was 1,000 ppm. The “MIC in ppm Escherichia coli” value in the experiment with Escherichia coli is on record as 2,500 ppm. The “MIC in ppm Pseudomonas aeruginosa” value in the experiment with Pseudomonas aeruginosa was 50,000 ppm. In addition, the “MIC in ppm Staphylococcus aureus” value in the experiment with Staphylococcus aureus is given as 1,000 ppm.
